The subject of one assay is PC3 (prostate). The assay is described as follows: In vitro cytotoxic activity MTT assay, PC3. Format: cell-based. To be noted: Homo sapiens, Prostate cell; PC3 (prostate) cells, exposed for 96 hours; read-out: Cytotoxicity activity IC50 (50% inhibition of cell proliferation). As for the experimental part:
(§1) Compounds 1-16 were screened for their in vitro cytotoxic activity utilizing a 3-(4,5-dimethyl-thiazol-2-yl)-2,5-diphenyltetrazolium bromide (MTT) assay against selected cancer human cell lines consisting of PC3 (prostate), HCT116 (colon), A375 (melanoma), H1299 (lung), MIAPaCa-2 (pancreas), HL60 (leukemia), MCF7 (breast), MDA-MB-231 (breast) (T. Mosmann, J. Immunol. Meth., 1983, 65, 55-63). The cells were cultured at 37° C. in RMPI1640 medium supplemented with 10% fetal bovine serum, 50 IU/mL penicillin, and 50 µg/mL streptomycin in a 5% CO2 incubator. All cells were sub-cultured 3 times/week by trypsinisation. Viable cells were seeded and allowed to adhere for 12 hours before a test drug was added in 96-well plates at an initial density of 1.0×10^5 cells/mL. Tumor cell lines were separately exposed to various concentrations of the tested compounds followed by incubation at a temperature of 37° C. during 96 hours inside a medium of fresh RMPI 1640. Cells were subsequently incubated at 37° C. using MTT at 0.5 mg/mL during 4 hours. After removal of supernatant, formazan crystals were dissolved in isopropanol and the optical density was measured at 570 nm. CX-4945 was used as a positive control.

For the next assay, the system named is HL60 (leukemia). Put plainly: In vitro cytotoxic activity MTT assay, HL60. Format: cell-based. Conditions: Homo sapiens, HL-60; HL60 (leukemia) cells, exposed for 96 hours; read-out: Cytotoxicity activity IC50 (50% inhibition of cell proliferation). How it is done: as §1
On the technique in general: Formazan colour is commonly taken as a measure of viable cells.

Assay [1] concerns the target T1, recombinant human CK2 (RRββ-holoenzyme) (Homo sapiens, UniProt P68400).
T1 construct: purchased Millipore
Put plainly: CK2 Kinase Assay (33P-ATP, substrate peptide RRRDDDSDDD). Format: biochemical. To be noted: final ATP concentration 15 μM, 10 minutes at 30° C.; read-out: protein kinase CK2 IC50. As for the experimental part: CK2 Kinase Assay was conducted using the protocol as described in Pierre F. et al; J. Med. Chem. 2011, 54, 635-654. The tested compounds in aqueous solution were added at a volume of 10 μL to a reaction mixture comprising 10 μL of assay dilution buffer (ADB; 20 mM MOPS, pH 7.2, 25 mM β-glycerol phosphate, 5 mM EGTA, 1 mM sodium orthovanadate, and 1 mM dithiothreitol), 10 μL of substrate peptide (RRRDDDSDDD, dissolved in ADB at a concentration of 1 mM), 10 μL of recombinant human CK2 (RRββ-holoenzyme, 25 ng dissolved in ADB; Millipore). Reactions were initiated by the addition of 10 μL of ATP solution (90% 75 mMMgCl2, 75 μM ATP (final ATP concentration:15 μM) dissolved in ADB; 10% [γ-33P] ATP (stock 1 mCi/100 μL; 3000 Ci/mmol (Perkin-Elmer) and maintained for 10 minutes at 30° C. The reactions were quenched with 100 μL of 0.75% phosphoric acid and then transferred to and filtered through a phosphor cellulose filter plate (Millipore). After washing each well five times with 0.75% phosphoric acid, the plate was dried under vacuum for 5 min and, following the addition of 15 μL of scintillation fluid to each well, the residual radioactivity was measured using a Wallac […]. The IC50 values were derived from eight concentrations of test inhibitors.

A further assay concerns MCF7 (breast). The assay is described as follows: In vitro cytotoxic activity MTT assay, MCF7. Format: cell-based. Conditions: Homo sapiens; MCF7 (breast) cells, exposed for 96 hours; read-out: Cytotoxicity activity IC50 (50% inhibition of cell proliferation). How it is done:
as §1

The next assay has as its system HCT116 (colon). The assay is described as follows: In vitro cytotoxic activity MTT assay, HCT116. Format: cell-based. To be noted: Homo sapiens, HCT-116; HCT116 (colon) cells, exposed for 96 hours; read-out: Cytotoxicity activity IC50 (50% inhibition of cell proliferation). How it is done: as §1
In a further assay the test system is H1299 (lung). Put plainly: In vitro cytotoxic activity MTT assay, H1299. It is filed as cell-based. To be noted: Homo sapiens, NCI-H1299; H1299 (lung) cells, exposed for 96 hours; read-out: Cytotoxicity activity IC50 (50% inhibition of cell proliferation). As for the experimental part: as §1
The subject of another assay is A375 (melanoma). The assay is described as follows: In vitro cytotoxic activity MTT assay, A375. It is filed as cell-based. To be noted: Homo sapiens, A-375; A375 (melanoma) cells, exposed for 96 hours; read-out: Cytotoxicity activity IC50 (50% inhibition of cell proliferation). How it is done:
as §1

The subject of a further assay is MIAPaCa-2 (pancreas). The assay is described as follows: In vitro cytotoxic activity MTT assay, MIAPaCa-2. It is filed as cell-based. To be noted: Homo sapiens, MIA PaCa-2; MIAPaCa-2 (pancreas) cells, exposed for 96 hours; read-out: Cytotoxicity activity IC50 (50% inhibition of cell proliferation). As for the experimental part:
as §1

Another assay deals with MDA-MB-231 (breast). The assay is described as follows: In vitro cytotoxic activity MTT assay, MDA-MB-231. Conditions: Homo sapiens; MDA-MB-231 (breast) cells, exposed for 96 hours; read-out: Cytotoxicity activity IC50 (50% inhibition of cell proliferation). Format: cell-based. How it is done: as §1

pIC50: −log10 of the molar value.

T1 sequence (P68400 whole entry): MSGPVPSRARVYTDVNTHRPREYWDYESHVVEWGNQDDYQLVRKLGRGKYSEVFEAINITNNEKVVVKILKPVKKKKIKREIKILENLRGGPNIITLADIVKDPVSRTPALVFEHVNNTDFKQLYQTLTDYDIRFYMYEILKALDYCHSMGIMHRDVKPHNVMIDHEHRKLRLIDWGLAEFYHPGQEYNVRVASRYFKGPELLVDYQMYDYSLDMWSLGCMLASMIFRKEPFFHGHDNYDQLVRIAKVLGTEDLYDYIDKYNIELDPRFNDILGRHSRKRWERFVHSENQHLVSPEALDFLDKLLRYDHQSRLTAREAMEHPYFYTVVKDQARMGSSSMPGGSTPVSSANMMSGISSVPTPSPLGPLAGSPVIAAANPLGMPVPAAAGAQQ
T1 sequence (P67870 whole entry partner): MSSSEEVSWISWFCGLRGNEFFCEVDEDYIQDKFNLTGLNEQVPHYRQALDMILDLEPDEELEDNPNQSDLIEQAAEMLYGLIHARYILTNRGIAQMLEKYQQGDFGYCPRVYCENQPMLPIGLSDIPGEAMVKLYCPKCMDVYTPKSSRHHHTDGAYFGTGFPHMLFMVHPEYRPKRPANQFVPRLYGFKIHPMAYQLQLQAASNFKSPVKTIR

In the case of `Clc1cccc(Nc2nc3ccncc3c3nn4ccncc4c23)c1` [Compound 1, N-(3-chlorophenyl)pyrazino[1′,2′:1,5]pyrazolo[4,3-c][1,6]naphthyridin-6-amine], the pIC50 in the assay on PC3 (prostate) is 5.89; in the assay with HL60 (leukemia) it was 5.36; in assay [1] it was 7.42; in the assay on MCF7 (breast) it was 5.24; in the assay on HCT116 (colon), 5.74; in the assay on H1299 (lung), 5.82. Further, the pIC50 in the assay with A375 (melanoma) is 5.43; with MIAPaCa-2 (pancreas), 5.92; in the assay on MDA-MB-231 (breast) it was 5.34.

The values are drawn from patent US12269827B1, “Substituted pyrazino[1′,2′:1,5]pyrazolo[4,3-c][1,6]naphthyridines as CK2 inhibitors” (KING FAISAL UNIVERSITY, priority 2023, dated 2025).
